Experimental data taken from ChEMBL document CHEMBL1201862, “PubChem BioAssay data set” (2004).
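Grown in 96-well plates, cells were treated for 48 hours with each compound at five concentrations. Insufficient inhibition: endpoint recorded as highest concentration tested. GI50 = concentration required for 50% inhibition of growth.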 Calls of active or inactive are those of the source. No stated cut-off is given here; in the data, active = GI50 up to about 1.1 µM and inactive = higher.

Experiments:
Test in all cases: NCI anticancer screen, dose series, 48 h
[1] = system: A549
[2] = system: HCC 2998
[3] = system: HOP-92
[4] = system: KM12
[5] = system: SR
[6] = system: LOX IMVI
[7] = system: 786-0
[8] = system: Hs-578T
[9] = system: RXF 393
[10] = system: ACHN
[11] = system: TK-10
[12] = system: OVCAR-8
[13] = system: T47D
[14] = system: SW-620
[15] = system: SF-295
[16] = system: NCI-H23
[17] = system: PC-3
[18] = system: SNB-19
[19] = system: SK-MEL-2

Measured: GI50

CC(C)(C)OC(=O)N1N=CCC1c1ccccc1 (configuration not stated)
inactive: [1] > 100 µM | [2] > 100 µM | [3] > 100 µM | [4] > 100 µM | [5] > 100 µM | [6] > 100 µM | [7] > 100 µM | [8] > 100 µM | [9] > 100 µM | [10] > 100 µM | [11] > 100 µM | [12] > 100 µM | [13] > 100 µM | [14] > 100 µM | [15] > 100 µM | [16] > 100 µM

C=CCCC(=O)N1CCC(C(=O)OCC)C1=O (configuration not stated)
inactive: [1] > 100 µM | [17] > 100 µM | [4] > 100 µM | [6] > 100 µM | [18] > 100 µM | [19] > 100 µM | [7] > 100 µM | [8] > 100 µM | [9] > 100 µM | [10] > 100 µM | [11] > 100 µM | [12] > 100 µM | [13] > 100 µM | [14] > 100 µM | [15] > 100 µM | [16] > 100 µM

Cc1nc2ccccc2c(=O)n1NC(=S)Nc1ccccc1
inactive: [1] > 100 µM | [3] 85.1 µM | [4] > 100 µM | [5] > 100 µM | [6] > 100 µM | [19] > 100 µM | [7] > 100 µM | [9] 75.7 µM | [10] > 100 µM | [11] > 100 µM | [12] > 100 µM | [14] > 100 µM | [15] > 100 µM | [16] 84.3 µM

Cc1nc2sccn2c1C(=O)NNC(N)=S
inactive: [1] > 100 µM | [2] > 100 µM | [3] 77.6 µM | [4] > 100 µM | [5] > 100 µM | [6] > 100 µM | [18] > 100 µM | [19] > 100 µM | [7] > 100 µM | [9] > 100 µM | [10] > 100 µM | [11] > 100 µM | [12] > 100 µM | [14] > 100 µM | [15] > 100 µM | [16] > 100 µM

CCOc1ncnc2ccc(Cl)c(I)c12
inactive: [1] 75.7 µM | [2] > 100 µM | [4] 91 µM | [5] 47.2 µM | [6] 49.4 µM | [18] 89.1 µM | [19] 53.1 µM | [7] 87.9 µM | [9] 15 µM | [10] 33.6 µM | [11] 62.7 µM | [12] > 100 µM | [14] > 100 µM | [15] > 100 µM | [16] 79.1 µM

Clc1ccccc1C1SCc2nc3ccccc3n21 (configuration not stated)
inactive: [1] 32.6 µM | [3] 8.79 µM | [4] 30.8 µM | [5] 19.4 µM | [6] 26.4 µM | [18] 12.4 µM | [19] 22 µM | [7] 25.7 µM | [9] 24.5 µM | [10] 22.1 µM | [11] 23 µM | [12] 24.2 µM | [14] 43.5 µM | [15] 28.8 µM | [16] 25.4 µM

CCOC(=N)CC(=O)c1ccccc1
inactive: [1] > 100 µM | [2] > 100 µM | [3] > 100 µM | [4] > 100 µM | [5] > 100 µM | [6] > 100 µM | [18] > 100 µM | [19] > 100 µM | [7] > 100 µM | [9] > 100 µM | [10] > 100 µM | [11] > 100 µM | [12] > 100 µM | [14] > 100 µM | [15] > 100 µM | [16] > 100 µM

COC(=O)C(C(=O)C(=O)NC1=C(Cl)C(=O)c2ccccc2C1=O)c1csc(-n2nc(-c3ccccc3)cc2-c2ccccc2)n1 (configuration not stated)
inactive: [1] > 100 µM | [2] > 100 µM | [3] > 100 µM | [4] > 100 µM | [5] > 100 µM | [6] > 100 µM | [18] > 100 µM | [7] > 100 µM | [9] 34.7 µM | [10] > 100 µM | [11] > 100 µM | [12] > 100 µM | [14] > 100 µM | [15] > 100 µM | [16] > 100 µM

CSCC1CC(c2ccc(Cl)cc2)=NO1 (configuration not stated)
inactive: [1] > 100 µM | [2] > 100 µM | [3] > 100 µM | [4] > 100 µM | [5] > 100 µM | [19] > 100 µM | [7] > 100 µM | [10] > 100 µM | [11] > 100 µM | [12] > 100 µM | [14] > 100 µM | [15] > 100 µM | [16] > 100 µM

O=C1c2ccccc2N2Oc3ccccc3C12c1ccccc1 (configuration not stated)
inactive: [1] > 100 µM | [2] > 100 µM | [3] 92.7 µM | [5] > 100 µM | [18] > 100 µM | [7] > 100 µM | [9] > 100 µM | [10] > 100 µM | [12] > 100 µM | [14] > 100 µM | [15] > 100 µM | [16] > 100 µM

O=C(CC(=O)C(F)(F)F)c1csc2ccccc12
inactive: [1] 62.2 µM | [2] 48.9 µM | [4] 38.9 µM | [5] 17.5 µM | [6] 25 µM | [18] 37.2 µM | [19] 22 µM | [7] 36.7 µM | [9] 3.13 µM | [10] 34.5 µM | [11] 4.28 µM | [12] 18.5 µM | [14] 38.5 µM | [15] 10.4 µM | [16] 29.4 µM

O=c1oc2c3ccc4ccccc4c3n(CCN3CCOCC3)c2c2ccccc12
inactive: [1] 5.42 µM | [2] > 100 µM | [3] > 100 µM | [4] > 100 µM | [5] 1.15 µM | [6] 4.06 µM | [18] > 100 µM | [7] 6.44 µM | [10] 5.6 µM | [11] > 100 µM | [12] > 100 µM | [14] 5.73 µM | [15] 6.38 µM

COc1ccc(NC(=O)c2cc(OC)cc(OC)c2)cc1
inactive: [1] 12.1 µM | [2] 23 µM | [3] > 100 µM | [4] 4.49 µM | [5] 11.6 µM | [6] 17.6 µM | [18] > 60.8 µM | [19] 25.9 µM | [7] > 85.7 µM | [9] 17.8 µM | [10] 57.4 µM | [11] 43.7 µM | [12] 80.5 µM | [14] 7.01 µM | [15] 17.8 µM | [16] 41.1 µM
